Tests used:
Rattus norvegicus [1] = species on record: Rattus norvegicus; assay: Biodistribution in rat plasma after 30 min time interval; assay type: ADME, organism-based; conditions: in vivo, 0.5 h
Rattus norvegicus [2] = species on record: Rattus norvegicus; assay: Biodistribution in rat kidney after 30 min time interval; assay type: ADME, organism-based; conditions: in vivo, 0.5 h
Rattus norvegicus [3] = species on record: Rattus norvegicus; assay: Biodistribution in rat kidney after 5 min time interval; assay type: ADME, organism-based; conditions: in vivo
Rattus norvegicus [4] = species on record: Rattus norvegicus; assay: Biodistribution in rat thalamus after 60 min time interval; assay type: ADME, organism-based; conditions: in vivo, 1 h
Rattus norvegicus [5] = species on record: Rattus norvegicus; assay: Biodistribution in rat kidney after 90 min time interval; assay type: ADME, organism-based; conditions: in vivo, 1.5 h
Rattus norvegicus [6] = species on record: Rattus norvegicus; assay: Biodistribution in rat cerebellem after 15 min time interval; assay type: ADME, organism-based, Cerebellum; conditions: in vivo, 0.25 h
Rattus norvegicus [7] = species on record: Rattus norvegicus; assay: Biodistribution in rat liver after 5 min time interval; assay type: ADME, organism-based; conditions: in vivo
Rattus norvegicus [8] = species on record: Rattus norvegicus; assay: Biodistribution in rat spleen after 60 min time interval; assay type: ADME, organism-based; conditions: in vivo, 1 h
Rattus norvegicus [9] = species on record: Rattus norvegicus; assay: Biodistribution in rat muscle after 30 min time interval; assay type: ADME, organism-based, Muscle tissue; conditions: in vivo, 0.5 h
Rattus norvegicus [10] = species on record: Rattus norvegicus; assay: Biodistribution in rat testes after 5 min time interval; assay type: ADME, organism-based, Testis; conditions: in vivo
Rattus norvegicus [11] = species on record: Rattus norvegicus; assay: Biodistribution in rat liver after 90 min time interval; assay type: ADME, organism-based; conditions: in vivo, 1.5 h
Rattus norvegicus [12] = species on record: Rattus norvegicus; assay: Biodistribution in rat heart after 90 min time interval; assay type: ADME, organism-based; conditions: in vivo, 1.5 h
Rattus norvegicus [13] = species on record: Rattus norvegicus; assay: Biodistribution in rat striatum after 30 min time interval; assay type: ADME, organism-based; conditions: in vivo, 0.5 h
Rattus norvegicus [14] = species on record: Rattus norvegicus; assay: Biodistribution in rat muscle after 15 min time interval; assay type: ADME, organism-based, Muscle tissue; conditions: in vivo, 0.25 h
Rattus norvegicus [15] = species on record: Rattus norvegicus; assay: Biodistribution in rat adrenal after 90 min time interval; assay type: ADME, organism-based; conditions: in vivo, 1.5 h
Rattus norvegicus [16] = species on record: Rattus norvegicus; assay: Biodistribution in rat testes after 90 min time interval; assay type: ADME, organism-based, Testis; conditions: in vivo, 1.5 h
Rattus norvegicus [17] = species on record: Rattus norvegicus; assay: Biodistribution in rat heart after 60 min time interval; assay type: ADME, organism-based; conditions: in vivo, 1 h
Rattus norvegicus [18] = species on record: Rattus norvegicus; assay: Biodistribution in rat pituitary after 15 min time interval; assay type: ADME, organism-based, Pituitary gland; conditions: in vivo, 0.25 h
Rattus norvegicus [19] = species on record: Rattus norvegicus; assay: Biodistribution in rat spleen after 30 min time interval; assay type: ADME, organism-based; conditions: in vivo, 0.5 h
Rattus norvegicus [20] = species on record: Rattus norvegicus; assay: Biodistribution in rat blood after 60 min time interval; assay type: ADME, organism-based; conditions: in vivo, 1 h
Rattus norvegicus [21] = species on record: Rattus norvegicus; assay: Biodistribution in rat hippocampus after 30 min time interval; assay type: ADME, organism-based; conditions: in vivo, 0.5 h
Rattus norvegicus [22] = species on record: Rattus norvegicus; assay: Biodistribution in rat muscle after 60 min time interval; assay type: ADME, organism-based, Muscle tissue; conditions: in vivo, 1 h
Rattus norvegicus [23] = species on record: Rattus norvegicus; assay: Biodistribution in rat hypothalamus after 90 min time interval; assay type: ADME, organism-based; conditions: in vivo, 1.5 h
Rattus norvegicus [24] = species on record: Rattus norvegicus; assay: Biodistribution in rat pons after 60 min time interval; assay type: ADME, organism-based; conditions: in vivo, 1 h
Rattus norvegicus [25] = species on record: Rattus norvegicus; assay: Biodistribution in rat heart after 15 min time interval; assay type: ADME, organism-based; conditions: in vivo, 0.25 h
Rattus norvegicus [26] = species on record: Rattus norvegicus; assay: Biodistribution in rat pituitary after 60 min time interval; assay type: ADME, organism-based, Pituitary gland; conditions: in vivo, 1 h
Rattus norvegicus [27] = species on record: Rattus norvegicus; assay: Biodistribution in rat adrenal after 5 min time interval; assay type: ADME, organism-based; conditions: in vivo
Rattus norvegicus [28] = species on record: Rattus norvegicus; assay: Biodistribution in rat pituitary after 30 min time interval; assay type: ADME, organism-based, Pituitary gland; conditions: in vivo, 0.5 h
Rattus norvegicus [29] = species on record: Rattus norvegicus; assay: Biodistribution in rat intestine after 30 min time interval; assay type: ADME, organism-based; conditions: in vivo, 0.5 h
Rattus norvegicus [30] = species on record: Rattus norvegicus; assay: Biodistribution in rat heart after 30 min time interval; assay type: ADME, organism-based; conditions: in vivo, 0.5 h
Rattus norvegicus [31] = species on record: Rattus norvegicus; assay: Biodistribution in rat hypothalamus after 15 min time interval; assay type: ADME, organism-based; conditions: in vivo, 0.25 h
Rattus norvegicus [32] = species on record: Rattus norvegicus; assay: Biodistribution in rat anti-CTX after 30 min time interval; assay type: ADME, organism-based; conditions: in vivo, 0.5 h
Rattus norvegicus [33] = species on record: Rattus norvegicus; assay: Biodistribution in rat liver after 60 min time interval; assay type: ADME, organism-based; conditions: in vivo, 1 h
Rattus norvegicus [34] = species on record: Rattus norvegicus; assay: Biodistribution in rat hippocampus after 90 min time interval; assay type: ADME, organism-based; conditions: in vivo, 1.5 h
Rattus norvegicus [35] = species on record: Rattus norvegicus; assay: Biodistribution in rat blood after 90 min time interval; assay type: ADME, organism-based; conditions: in vivo, 1.5 h
Rattus norvegicus [36] = species on record: Rattus norvegicus; assay: Biodistribution in rat muscle after 90 min time interval; assay type: ADME, organism-based, Muscle tissue; conditions: in vivo, 1.5 h
Rattus norvegicus [37] = species on record: Rattus norvegicus; assay: Biodistribution in rat liver after 30 min time interval; assay type: ADME, organism-based; conditions: in vivo, 0.5 h
Rattus norvegicus [38] = species on record: Rattus norvegicus; assay: Biodistribution in rat cerebellem after 60 min time interval; assay type: ADME, organism-based, Cerebellum; conditions: in vivo, 1 h
Rattus norvegicus [39] = species on record: Rattus norvegicus; assay: Biodistribution in rat adrenal after 15 min time interval; assay type: ADME, organism-based; conditions: in vivo, 0.25 h
Rattus norvegicus [40] = species on record: Rattus norvegicus; assay: Biodistribution in rat blood after 5 min time interval; assay type: ADME, organism-based; conditions: in vivo
Rattus norvegicus [41] = species on record: Rattus norvegicus; assay: Biodistribution in rat blood after 30 min time interval; assay type: ADME, organism-based; conditions: in vivo, 0.5 h
Rattus norvegicus [42] = species on record: Rattus norvegicus; assay: Biodistribution in rat lung after 15 min time interval; assay type: ADME, organism-based; conditions: in vivo, 0.25 h
Rattus norvegicus [43] = species on record: Rattus norvegicus; assay: Biodistribution in rat post-CTX after 15 min time interval; assay type: ADME, organism-based; conditions: in vivo, 0.25 h
Rattus norvegicus [44] = species on record: Rattus norvegicus; assay: Biodistribution in rat hypothalamus after 5 min time interval; assay type: ADME, organism-based; conditions: in vivo
Rattus norvegicus [45] = species on record: Rattus norvegicus; assay: Biodistribution in rat trachea after 30 min time interval; assay type: ADME, organism-based; conditions: in vivo, 0.5 h
Rattus norvegicus [46] = species on record: Rattus norvegicus; assay: Biodistribution in rat pituitary after 90 min time interval; assay type: ADME, organism-based; conditions: in vivo, 1.5 h
Rattus norvegicus [47] = species on record: Rattus norvegicus; assay: Biodistribution in rat hippocampus after 15 min time interval; assay type: ADME, organism-based; conditions: in vivo, 0.25 h
Rattus norvegicus [48] = species on record: Rattus norvegicus; assay: Biodistribution in rat intestine after 60 min time interval; assay type: ADME, organism-based; conditions: in vivo, 1 h
Rattus norvegicus [49] = species on record: Rattus norvegicus; assay: Biodistribution in rat spleen after 90 min time interval; assay type: ADME, organism-based; conditions: in vivo, 1.5 h
Rattus norvegicus [50] = species on record: Rattus norvegicus; assay: Biodistribution in rat plasma after 5 min time interval; assay type: ADME, organism-based; conditions: in vivo

- ID/g (Rattus norvegicus [1]): 0.08%
- ID/g (Rattus norvegicus [2]): 0.24%
- ID/g (Rattus norvegicus [3]): 0.69%
- ID/g (Rattus norvegicus [4]): 0.02%
- ID/g (Rattus norvegicus [5]): 0.11%
- ID/g (Rattus norvegicus [6]): 0.1%
- ID/g (Rattus norvegicus [7]): 0.94%
- ID/g (Rattus norvegicus [8]): 0.06%
- ID/g (Rattus norvegicus [9]): 0.05%
- ID/g (Rattus norvegicus [10]): 0.12%
- ID/g (Rattus norvegicus [11]): 0.37%
- ID/g (Rattus norvegicus [12]): 0.04%
- ID/g (Rattus norvegicus [13]): 0.2%
- ID/g (Rattus norvegicus [14]): 0.11%
- ID/g (Rattus norvegicus [15]): 0.14%
- ID/g (Rattus norvegicus [16]): 0.03%
- ID/g (Rattus norvegicus [17]): 0.04%
- ID/g (Rattus norvegicus [18]): 0.06%
- ID/g (Rattus norvegicus [19]): 0.07%
- ID/g (Rattus norvegicus [20]): 0.03%
- ID/g (Rattus norvegicus [21]): 0.04%
- ID/g (Rattus norvegicus [22]): 0.04%
- ID/g (Rattus norvegicus [23]): 0.02%
- ID/g (Rattus norvegicus [24]): 0.02%
- ID/g (Rattus norvegicus [25]): 0.15%
- ID/g (Rattus norvegicus [26]): 0.02%
- ID/g (Rattus norvegicus [27]): 0.85%
- ID/g (Rattus norvegicus [28]): 0.05%
- ID/g (Rattus norvegicus [29]): 0.25%
- ID/g (Rattus norvegicus [30]): 0.09%
- ID/g (Rattus norvegicus [31]): 0.07%
- ID/g (Rattus norvegicus [32]): 0.06%
- ID/g (Rattus norvegicus [33]): 0.36%
- ID/g (Rattus norvegicus [34]): 0.02%
- ID/g (Rattus norvegicus [35]): 0.05%
- ID/g (Rattus norvegicus [36]): 0.02%
- ID/g (Rattus norvegicus [37]): 0.52%
- ID/g (Rattus norvegicus [38]): 0.02%
- ID/g (Rattus norvegicus [39]): 0.44%
- ID/g (Rattus norvegicus [40]): 0.13%
- ID/g (Rattus norvegicus [41]): 0.06%
- ID/g (Rattus norvegicus [42]): 0.52%
- ID/g (Rattus norvegicus [43]): 0.1%
- ID/g (Rattus norvegicus [44]): 0.16%
- ID/g (Rattus norvegicus [45]): 0.09%
- ID/g (Rattus norvegicus [46]): 0.03%
- ID/g (Rattus norvegicus [47]): 0.09%
- ID/g (Rattus norvegicus [48]): 0.1%
- ID/g (Rattus norvegicus [49]): 0.05%
- ID/g (Rattus norvegicus [50]): 0.19%
SMILES: [11CH3]Oc1ccc(CCCn2ncc3c2nc(N)n2nc(-c4ccco4)nc32)cc1

From ChEMBL document CHEMBL1133517, “Design, radiosynthesis, and biodistribution of a new potent and selective ligand for in vivo imaging of the adenosine A(2A) receptor system using positron emission tomography” (J Med Chem, 2000)
